What was measured:
[1] = test system: blackgrass; assay: Test B pre/postemergence blackgrass; type: in vivo, Alopecurus myosuroides
In short: (§1)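 Test chemicals in a non-phytotoxic solvent mixture with surfactant were sprayed preemergence onto planted seeds and postemergence onto plants 2 to 18 cm tall (1- to 4-leaf stage). After twelve to sixteen days in a greenhouse, injury was visually rated against untreated controls from 0 (no effect) to 10 (complete control).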

[2] = test system: wheat; assay: Test B pre/postemergence wheat; type: in vivo, Triticum aestivum; conditions: for Plant response rating, Wheat: scale of 0 to 10 where 0 is no effect and 10 is complete control
In short: as §1

[3] = test system: purple nutsedge; assay: Test B pre/postemergence purple nutsedge; type: in vivo, Cyperus rotundus; conditions: for Plant response rating, Nutsedge: scale of 0 to 10 where 0 is no effect and 10 is complete control
In short: as §1

[4] = test system: duck salad; assay: Test B flood test duck salad; type: in vivo, Heteranthera limosa
In short: (§2)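 Plants were grown to the 2-leaf stage before treatment with test chemical, then held in a greenhouse for twelve to sixteen days. Injury was visually rated against untreated controls on a 0–10 scale, where 0 is no effect and 10 is complete control.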

[5] = test system: crabgrass; assay: Test B pre/postemergence crabgrass; type: in vivo, Digitaria sanguinalis
In short: as §1

[6] = test system: morningglory; assay: Test B pre/postemergence morningglory; type: in vivo, Ipomoea hederacea; conditions: for Plant response rating, Morningglory: scale of 0 to 10 where 0 is no effect and 10 is complete control
In short: as §1

[7] = test system: giant foxtail; assay: Test B pre/postemergence giant foxtail; type: in vivo, Setaria faberii
In short: as §1

[8] = test system: wild oat; assay: Test B pre/postemergence wild oat; type: in vivo, Avena fatua; conditions: for Plant response rating, Wild oats: scale of 0 to 10 where 0 is no effect and 10 is complete control
In short: as §1

[9] = test system: corn; assay: Test B pre/postemergence corn; type: in vivo, Zea mays
In short: as §1

[10] = test system: rice; assay: Test B flood test rice; type: in vivo, Oryza sativa
In short: as §2

[11] = test system: surinam grass; assay: Test B pre/postemergence surinam grass; type: in vivo, Brachiaria decumbens
In short: as §1

[12] = test system: bamyardgrass; assay: Test B flood test barnyardgrass; type: in vivo, Echinochloa crus-galli
In short: as §2

[13] = test system: cocklebur; assay: Test B pre/postemergence cocklebur; type: in vivo, Xanthium strumarium
In short: as §1

[14] = test system: velvetleaf; assay: Test B pre/postemergence velvetleaf; type: in vivo, Abutilon theophrasti; conditions: for Plant response rating, Velvetleaf: scale of 0 to 10 where 0 is no effect and 10 is complete control
In short: as §1

[15] = test system: smallflower flatsedge; assay: Test B flood test smallflower flatsedge; type: in vivo, Cyperus difformis
In short: as §2

[16] = Postemergence, Rate 250 g/ha, scale 0 to 10
[17] = Postemergence, Rate 500 g/ha, scale of 0 to 10 where 0 is no effect and 10 is complete control
[18] = Preemergence, Rate 62 g/ha, scale of 0 to 10 where 0 is no effect and 10 is complete control
[19] = Preemergence, Rate 125 g/ha, scale of 0 to 10 where 0 is no effect and 10 is complete control
[20] = Preemergence, Rate 250 g/ha, scale 0 to 10, 0 is no effect, 10 is complete control
[21] = Preemergence, Rate 500 g/ha, scale 0 to 10, 0 is no effect, 10 is complete control
[22] = Rate 62 g/ha, Postemergence, scale 0 to 10, 0 no effect, 10 complete control
[23] = Rate 125 g/ha, Postemergence, scale 0 to 10, 0 is no effect, 10 is complete control
[24] = Rate 62 g/ha, flood test species, Pre-emergence, visual evaluation after twelve to sixteen days
[25] = Rate 125 g/ha, under heading Pre-emergence, flood test species, visual evaluation after twelve to sixteen days
[26] = Rate 250 g/ha, Pre-emergence (flood test species), scale 0 to 10, 0 is no effect, 10 is complete control
[27] = Rate 500 g/ha, Pre-emergence, flood test species, scale 0 to 10 (0 no effect, 10 complete control)

Q: Which results are given for `CC(C)N(C(=O)n1oc(=O)n(C(C)CCl)c1=O)c1ccc(Cl)cc1` (centres unmarked) [Compound 456]?
A: Blackgrass plant response rating [1, 16]: 4; Blackgrass plant response rating [1, 17]: 8; Plant response rating, Blackgrass [1, 18]: 0; Plant response rating, Blackgrass [1, 19]: 2; Blackgrass plant response rating [1, 20]: 3; Blackgrass plant response rating [1, 21]: 6; Blackgrass plant response rating [1, 22]: 4; Blackgrass plant response rating [1, 23]: 4; Wheat plant response rating [2, 16]: 0; Plant response rating, Wheat ([2]; Preemergence, Rate 62 g/ha): 0; Plant response rating, Wheat ([2]; Preemergence, Rate 125 g/ha): 0; Wheat plant response rating [2, 20]: 0; Wheat plant response rating [2, 21]: 0; Wheat plant response rating [2, 22]: 0; Wheat plant response rating [2, 23]: 0; Nutsedge plant response rating [3, 16]: 0; Plant response rating, Nutsedge ([3]; Preemergence, Rate 62 g/ha): 0; Plant response rating, Nutsedge ([3]; Preemergence, Rate 125 g/ha): 0; Nutsedge plant response rating [3, 20]: 0; Nutsedge plant response rating [3, 21]: 0; Nutsedge plant response rating [3, 22]: 0; Nutsedge plant response rating [3, 23]: 0; Plant response rating, Ducksalad (0 to 10 scale, 0 is no effect, 10 is complete control) [4, 24]: 0; Ducksalad plant response rating (0 to 10 scale, 0 is no effect, 10 is complete control) [4, 25]: 0; Ducksalad plant response rating [4, 26]: 0; Ducksalad plant response rating [4, 27]: 0; Crabgrass plant response rating [5, 16]: 4; Crabgrass plant response rating [5, 17]: 7; Plant response rating, Crabgrass [5, 18]: 6; Plant response rating, Crabgrass [5, 19]: 6; Crabgrass plant response rating [5, 20]: 8; Crabgrass plant response rating [5, 21]: 9; Crabgrass plant response rating [5, 22]: 4; Morningglory plant response rating [6, 16]: 5; Plant response rating, Morningglory ([6]; Preemergence, Rate 62 g/ha): 0; Plant response rating, Morningglory ([6]; Preemergence, Rate 125 g/ha): 0; Morningglory plant response rating [6, 20]: 3; Morningglory plant response rating [6, 21]: 3; Morningglory plant response rating [6, 22]: 3; Morningglory plant response rating [6, 23]: 3; Giant foxtail plant response rating [7, 16]: 3; Giant foxtail plant response rating [7, 17]: 8; Plant response rating, Giant foxtail [7, 18]: 5; Plant response rating, Giant foxtail [7, 19]: 10; Giant foxtail plant response rating [7, 20]: 10; Giant foxtail plant response rating [7, 21]: 10; Giant foxtail plant response rating [7, 22]: 2; Giant foxtail plant response rating [7, 23]: 2; Wild oats plant response rating [8, 16]: 0; Plant response rating, Wild oats ([8]; Preemergence, Rate 62 g/ha): 0; Plant response rating, Wild oats ([8]; Preemergence, Rate 125 g/ha): 0; Wild oats plant response rating [8, 20]: 2; Wild oats plant response rating [8, 21]: 3; Wild oats plant response rating [8, 22]: 0; Wild oats plant response rating [8, 23]: 0; Corn plant response rating [9, 16]: 0; Corn plant response rating [9, 17]: 0; Plant response rating, Corn [9, 18]: 0; Plant response rating, Corn [9, 19]: 0; Corn plant response rating [9, 20]: 0; Corn plant response rating [9, 21]: 0; Corn plant response rating [9, 22]: 0; Corn plant response rating [9, 23]: 0; Plant response rating, Rice (0 to 10 scale, 0 is no effect, 10 is complete control) [10, 24]: 0; Rice plant response rating (0 to 10 scale, 0 is no effect, 10 is complete control) [10, 25]: 0; Rice plant response rating [10, 26]: 0; Rice plant response rating [10, 27]: 0; B. signalgrass plant response rating ([11]; Postemergence, Rate 250 g/ha, scale 0 to 10, 0 no effect, 10 complete control): 0; B. signalgrass plant response rating [11, 17]: 2; Plant response rating, B. signalgrass [11, 18]: 0; Plant response rating, B. signalgrass [11, 19]: 0; B. signalgrass plant response rating [11, 20]: 0; B. signalgrass plant response rating [11, 21]: 2; B. signalgrass plant response rating [11, 22]: 0; B. signalgrass plant response rating [11, 23]: 0; Plant response rating, Barnyardgrass (0 to 10 scale, 0 is no effect, 10 is complete control) [12, 24]: 0; Barnyardgrass plant response rating (0 to 10 scale, 0 is no effect, 10 is complete control) [12, 25]: 0; Barnyardgrass plant response rating [12, 26]: 0; Barnyardgrass plant response rating [12, 27]: 0; Cocklebur plant response rating [13, 16]: 0; Cocklebur plant response rating [13, 17]: 2; Plant response rating, Cocklebur [13, 18]: 0; Plant response rating, Cocklebur [13, 19]: 0; Cocklebur plant response rating [13, 20]: 0; Cocklebur plant response rating [13, 21]: 0; Cocklebur plant response rating [13, 22]: 0; Cocklebur plant response rating [13, 23]: 0; Velvetleaf plant response rating [14, 16]: 0; Plant response rating, Velvetleaf ([14]; Preemergence, Rate 62 g/ha): 0; Plant response rating, Velvetleaf ([14]; Preemergence, Rate 125 g/ha): 0; Velvetleaf plant response rating [14, 20]: 1; Velvetleaf plant response rating [14, 21]: 2; Velvetleaf plant response rating [14, 22]: 0; Velvetleaf plant response rating [14, 23]: 0; Plant response rating, S. Flatsedge (0 to 10 scale, 0 is no effect, 10 is complete control) [15, 24]: 0; S. Flatsedge plant response rating (0 to 10 scale, 0 is no effect, 10 is complete control) [15, 25]: 0; S. Flatsedge plant response rating [15, 26]: 0; S. Flatsedge plant response rating [15, 27]: 0
